In PubChem BioAssay (NCI):
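Growth conditions: 96-well plates. Treatment: test compound, 48 hours, 5 concentrations. Analysis: linear interpolation between bracketing concentrations; unreached endpoints set to highest concentration. TGI marks complete inhibition of growth.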

Experiments:
Assay in all cases: NCI tumour cell line growth inhibition, 48 h
[1] = system: SW-620 colon
[2] = system: SN12C renal
[3] = system: SNB-75 CNS
[4] = system: NCI-H522 lung
[5] = system: CCRF-CEM leukemia
[6] = system: UACC-62 melanoma
[7] = system: SF-295 CNS
[8] = system: NCI-H460 lung
[9] = system: M14 melanoma
[10] = system: MDA-MB-435
[11] = system: HS 578T breast
[12] = system: OVCAR-8 ovarian
[13] = system: SK-MEL-5 melanoma
[14] = system: SF-268 CNS
[15] = system: MDA-MB-231 breast
[16] = system: SK-MEL-28 melanoma
[17] = system: KM12 colon
[18] = system: OVCAR-4 ovarian
[19] = system: RPMI-8226 leukemia

| Structure (SMILES) | TGI [1] | TGI [2] | TGI [3] | TGI [4] | TGI [5] | TGI [6] | TGI [7] | TGI [8] | TGI [9] | TGI [10] | TGI [11] | TGI [12] | TGI [13] | TGI [14] | TGI [15] | TGI [16] | TGI [17] | TGI [18] | TGI [19] |
| --- | --- | --- | --- | --- | --- | --- | --- | --- | --- | --- | --- | --- | --- | --- | --- | --- | --- | --- | --- |
| NC(=S)N/N=c1\cc(C(=O)Nc2ccc([N+](=O)[O-])cc2[N+](=O)[O-])oc2ccccc12 | > 100 µM | > 100 µM | > 100 µM | > 100 µM | > 100 µM | > 100 µM | > 100 µM | > 100 µM | > 100 µM | > 100 µM | > 100 µM | > 100 µM | > 100 µM | > 100 µM | > 100 µM | > 100 µM | > 100 µM | > 100 µM |  |
| CCSC1=N/C(=C/c2ccccc2O)C(=O)N1 | > 100 µM | > 100 µM | 72.1 µM | > 100 µM | > 100 µM | > 100 µM | > 100 µM | > 100 µM | > 100 µM | > 100 µM | > 100 µM | > 100 µM | > 100 µM | > 100 µM | > 100 µM | > 100 µM | > 100 µM |  | > 100 µM |
| O=C(Cn1c2ccc(Br)cc2c2nc3ccccc3nc21)N/N=C/c1ccccc1 | > 100 µM | > 100 µM | > 100 µM |  |  | > 100 µM | 84.8 µM |  | > 100 µM | > 100 µM |  | > 100 µM | > 100 µM | > 100 µM | > 100 µM | > 100 µM | > 100 µM |  |  |
| CC(=O)Oc1cc(C)c(OC(C)=O)c2c1[C@H]1CC[C@]3(C)[C@@H](OC(C)=O)CC[C@H]3[C@@H]1CC2 | 34.3 µM | 33.2 µM | 52.1 µM | 32.6 µM | 43.5 µM | 32.8 µM | 37.2 µM | 33.1 µM | 30.2 µM | 27.7 µM | 57 µM | 44.7 µM | 31.3 µM | 47.6 µM | 32.7 µM | 29.9 µM | 28.6 µM |  | 59.2 µM |
| Cn1c(=O)cc(NCCc2ccccc2)[nH]c1=O | > 100 µM | > 100 µM | > 100 µM |  | > 100 µM | > 100 µM | 97.6 µM | > 100 µM | > 100 µM |  | 50.7 µM | > 100 µM | > 100 µM | > 100 µM | 50 µM | > 100 µM | > 100 µM | > 100 µM | > 100 µM |
| CC1(C)CC(=O)c2c(nc(SSc3nc4c(c(-c5ccc(Br)cc5)c3C#N)C(=O)CC(C)(C)C4)c(C#N)c2-c2ccc(Br)cc2)C1 | > 10 µM | > 10 µM | > 10 µM | > 10 µM | > 10 µM |  | > 10 µM | > 10 µM | > 10 µM |  | > 10 µM | > 10 µM | > 10 µM | > 10 µM |  | > 10 µM | > 10 µM | > 10 µM | > 10 µM |
| O=C(NCCNCCNC(=O)C(F)(F)F)C(F)(F)F | > 100 µM | > 100 µM |  |  | > 100 µM | > 100 µM | > 100 µM |  | > 100 µM | > 100 µM | > 100 µM | > 100 µM | > 100 µM | > 100 µM | > 100 µM | > 100 µM | > 100 µM | > 100 µM | > 100 µM |
| COC(=O)c1nc(-c2nc(CCNC(=O)OC(C)(C)C)sc2Cl)sc1Cl | > 100 µM |  | > 100 µM |  | > 100 µM | > 100 µM | > 100 µM | > 100 µM | > 100 µM | > 100 µM | > 100 µM | > 100 µM | > 100 µM | > 100 µM |  | > 100 µM | > 100 µM |  | > 100 µM |
| Nc1cc(N2CCOCC2)nc(=O)n1-c1ccc(Cl)cc1 | > 100 µM | > 100 µM | > 100 µM |  | > 100 µM | > 100 µM | > 100 µM | > 100 µM | > 100 µM | > 100 µM |  | > 100 µM | > 100 µM |  |  | > 100 µM | > 100 µM |  | > 100 µM |
| COC(=O)c1ccccc1C1CN=NC12Cc1cc(C)c(C)cc1C2=O (stereo unspecified) | > 100 µM | > 100 µM | > 100 µM | 67.3 µM | > 100 µM | > 100 µM | > 100 µM | > 100 µM | > 100 µM | > 100 µM | > 100 µM | > 100 µM | 38.1 µM | > 100 µM | > 100 µM | > 100 µM | > 100 µM | > 100 µM |  |
| O=C1/C(=C/c2ccccc2)CCc2ccccc21 | 34.2 µM | 56.1 µM | 31.9 µM |  | 18.3 µM | 36.7 µM | 34 µM | 65.4 µM | 37.4 µM | 28.2 µM | 72.4 µM | 65.5 µM | 32.3 µM | 37.4 µM | 87.7 µM | 38.3 µM | 33.8 µM | 28 µM | 9.42 µM |
